The text below walks through data of article PMC7901699, “Challenging inflammatory process at molecular, cellular and in vivo levels via some new pyrazolyl thiazolones” (Journal of Enzyme Inhibition and Medicinal Chemistry, 2021).

pIC50: −log10 of the molar value. “Also recorded” adds a separate entry of the source.

For one data set, the target named is T1, 15-LOX (Glycine max, UniProt P08170).
T1 construct: purchased Cayman chemicals 760700
T1 sequence (P08170 1-839): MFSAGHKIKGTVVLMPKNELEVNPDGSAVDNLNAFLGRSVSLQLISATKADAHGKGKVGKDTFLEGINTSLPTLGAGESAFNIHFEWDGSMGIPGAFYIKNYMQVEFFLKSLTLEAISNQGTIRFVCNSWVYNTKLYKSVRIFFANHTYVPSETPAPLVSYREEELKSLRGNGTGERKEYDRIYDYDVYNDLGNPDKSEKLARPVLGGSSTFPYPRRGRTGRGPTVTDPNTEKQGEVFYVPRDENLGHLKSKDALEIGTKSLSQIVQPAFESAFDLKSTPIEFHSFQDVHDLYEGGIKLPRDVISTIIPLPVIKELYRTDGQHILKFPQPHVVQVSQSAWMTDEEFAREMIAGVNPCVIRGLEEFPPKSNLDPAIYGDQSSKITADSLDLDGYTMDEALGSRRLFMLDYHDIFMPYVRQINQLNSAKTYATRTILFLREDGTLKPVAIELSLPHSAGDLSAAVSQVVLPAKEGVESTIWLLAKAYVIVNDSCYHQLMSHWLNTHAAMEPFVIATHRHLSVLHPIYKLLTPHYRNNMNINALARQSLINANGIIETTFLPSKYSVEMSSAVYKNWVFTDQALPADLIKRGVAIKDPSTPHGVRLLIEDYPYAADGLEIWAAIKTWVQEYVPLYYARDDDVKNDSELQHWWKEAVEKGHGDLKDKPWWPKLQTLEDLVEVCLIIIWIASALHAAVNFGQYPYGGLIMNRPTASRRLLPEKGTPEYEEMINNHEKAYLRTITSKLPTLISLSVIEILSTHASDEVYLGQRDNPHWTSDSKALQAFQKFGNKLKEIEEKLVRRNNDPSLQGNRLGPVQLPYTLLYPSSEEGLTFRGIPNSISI
The experiment in a line: In vitro 15-LOX inhibition assay (lipoxygenase inhibitor screening kit, Cayman). In kind it is biochemical. The following applies: for pIC50: mean of three determinations. As to the method:
(§1) Both assays were carried out in compliance with the manufacturer’s instructions and in accordance to prior studies[29]^,[33].
(§2) IC50 values (μM) and selectivity indices (SI) were calculated.

The next data set concerns the target T2, ovine COX-1 (Ovis aries, UniProt P05979).
T2 construct: purchased Cayman Chemicals Inc. 560131
T2 sequence (P05979 25-600): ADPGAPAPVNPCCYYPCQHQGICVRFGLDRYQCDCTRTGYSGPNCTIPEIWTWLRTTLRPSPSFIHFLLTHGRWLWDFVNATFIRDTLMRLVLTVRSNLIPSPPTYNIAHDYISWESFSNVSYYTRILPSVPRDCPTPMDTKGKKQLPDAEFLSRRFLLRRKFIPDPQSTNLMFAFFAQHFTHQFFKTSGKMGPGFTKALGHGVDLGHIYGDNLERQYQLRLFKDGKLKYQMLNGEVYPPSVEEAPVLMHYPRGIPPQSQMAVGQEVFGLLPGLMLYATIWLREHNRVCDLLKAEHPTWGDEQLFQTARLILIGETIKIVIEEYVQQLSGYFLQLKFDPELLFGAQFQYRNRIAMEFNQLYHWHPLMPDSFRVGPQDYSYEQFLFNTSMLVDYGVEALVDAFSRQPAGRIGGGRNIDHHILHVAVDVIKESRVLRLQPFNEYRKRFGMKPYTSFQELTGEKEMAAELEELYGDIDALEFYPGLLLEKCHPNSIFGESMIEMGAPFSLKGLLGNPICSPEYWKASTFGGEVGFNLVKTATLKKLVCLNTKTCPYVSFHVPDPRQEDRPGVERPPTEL
The experiment in a line: In vitro COX-1 inhibition assay (colorimetric COX inhibitor screening kit, Cayman). In kind it is biochemical. To be noted: mean of three determinations. As to the method: as §1, §2

Another data set deals with T3, human recombinant COX-2 (Homo sapiens, UniProt P35354).
T3 construct: purchased Cayman Chemicals Inc. 560131
T3 sequence (P35354 18-604): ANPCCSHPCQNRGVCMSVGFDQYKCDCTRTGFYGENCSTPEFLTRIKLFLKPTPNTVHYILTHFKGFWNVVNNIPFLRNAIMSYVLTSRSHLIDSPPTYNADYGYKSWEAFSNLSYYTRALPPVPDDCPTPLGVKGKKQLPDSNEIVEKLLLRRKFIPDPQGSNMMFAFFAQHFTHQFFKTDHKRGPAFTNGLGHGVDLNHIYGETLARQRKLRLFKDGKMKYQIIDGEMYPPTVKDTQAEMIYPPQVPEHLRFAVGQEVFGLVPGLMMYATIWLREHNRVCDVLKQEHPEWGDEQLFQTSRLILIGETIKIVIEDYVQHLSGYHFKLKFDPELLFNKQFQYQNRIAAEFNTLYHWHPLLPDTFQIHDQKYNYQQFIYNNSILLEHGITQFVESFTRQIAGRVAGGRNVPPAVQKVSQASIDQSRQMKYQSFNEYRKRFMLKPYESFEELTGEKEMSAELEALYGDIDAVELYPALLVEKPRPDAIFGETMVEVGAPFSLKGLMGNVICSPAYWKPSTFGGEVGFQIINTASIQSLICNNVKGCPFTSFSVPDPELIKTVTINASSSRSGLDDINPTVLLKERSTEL
Put plainly: In vitro COX-2 inhibition assay (colorimetric COX inhibitor screening kit, Cayman). In kind it is biochemical. To be noted: for SI (COX-1/ COX-2): IC50 (COX-1)/IC50 (COX-2); for pIC50: mean of three determinations. As to the method: as §1, §2

The test system of data set [1] is formalin-induced rat paw oedema. Put plainly: Formalin-induced paw oedema test (acute inflammation model). In kind it is in vivo, Wistar rats. To be noted: oral 5 mg/kg once daily for seven days; oedema 4 h after formalin; vs diclofenac sodium and celecoxib 5 mg/kg. As to the method: A freshly prepared 5% formalin solution (prepared from 37% formaldehyde and saline (Merck, Germany)) was used as a phlogistic agent. Test and reference compounds (5 mg/kg body weight) were dissolved in DMSO and given orally with gastric gavage once per day for seven consecutive days, whereas DMSO was administered to the control group. On the 8th day, the initial paw volume was determined by a Vernier calliper. Then, a subcutaneous injection of 40 μl formalin was introduced into the right hind paw of all groups under light ether anaesthesia. The paw volume was measured 4 h after the formalin injection and the oedema volume was calculated by the difference in paw volume before and 4 h after the formalin injection. The percentage inhibition of oedema (or % protection against inflammation) was calculated for each compound as previously reported[34]^,[35].

The next data set concerns rat stomach. Put plainly: Gastric ulcerogenic activity and histopathological examination. The following applies: stomach removed on 8th day of administration, 5 mg/kg oral.
Data set [2] relates to cotton pellet-induced granuloma. The experiment in a line: Cotton pellet-induced granuloma assay (chronic inflammation model). The following applies: oral 5 mg/kg daily, pellets excised on 8th day, vs diclofenac sodium and celecoxib.

Protocol for rat stomach: The same compounds were tested for chronic gastric ulcerative symptoms[37]^,[38]. Rat stomach was removed on the 8th day of drug administration. Stomach was opened through the greater curvature, washed and kept in saline. Gross examination was carried out for any signs of haemorrhage, hyperaemia, haemorrhagic erosion or ulcers. Moreover, histopathological inspection was conducted to verify the extent of inflammatory reaction in mucosal layers[28]^,[38].

`O=C1N=C(N2CCOCC2)S/C1=C\c1cn(-c2ccccc2)nc1-c1ccc(Br)cc1` [Compound 10, (Z)-5-((3-(4-bromophenyl)-1-phenyl-1H-pyrazol-4-yl)methylene)-2-morpholinothiazol-4(5H)-one]: the results for the negative-log IC50 (pIC50) against 15-LOX, against ovine COX-1 and at human recombinant COX-2 were 5.34, 4.95 and 6.96, respectively. Further, at 15-LOX (relative to quercetin), the “15-LOX inhibitory activity as % of the activity of quercetin” value is 74%. Also, the “SI (COX-1/ COX-2)” value on human recombinant COX-2 was 103. In addition, the “Inhibition of formalin-induced rat paw oedema (in words)” value in data set [1] was “as effective as either diclofenac or celecoxib”. Further, the “Gross observation of isolated rat stomachs” value with rat stomach is “variable levels of hyperaemia without gross ulceration”. Moreover, the “Histopathological examination of stomach gastric layers” value in the data set on rat stomach (H&E, 5 mg/kg) was “both edoema and inflammatory changes in stomach mucosal surface”. The “Inhibition of cotton pellet granuloma weight (in words)” value in data set [2] was “only superior to celecoxib”.
In the case of `Cc1nn(-c2ccccc2)c(Cl)c1/C=C1\SC(N2CCOCC2)=NC1=O` [Compound 2, (Z)-5-((5-chloro-3-methyl-1-phenyl-1H-pyrazol-4-yl)methylene)-2-morpholinothiazol-4(5H)-one], the values for the negative-log IC50 (pIC50) against 15-LOX, against ovine COX-1 and on human recombinant COX-2 were 5.62, 5.09 and 7.05, respectively. Also, at human recombinant COX-2, the “SI (COX-1/ COX-2)” value is reported as 90. For the same molecule, the “Inhibition of formalin-induced rat paw oedema (in words)” value in data set [1] is “as effective as either diclofenac or celecoxib”. In the data set with rat stomach (5 mg/kg), the “Gross observation of isolated rat stomachs” value is given as “normal texture”. For the same molecule, the “Inhibition of cotton pellet granuloma weight (in words)” value in data set [2] (5 mg/kg) is “superior anti-inflammatory activity, when compared to diclofenac and celecoxib; also recorded: increased inhibition of granuloma weight in comparison to both celecoxib and diclofenac”.
Turning to `Cc1ccc(-c2nn(-c3ccccc3)cc2/C=C2\SC(N3CCOCC3)=NC2=O)cc1` [Compound 6, (Z)-2-morpholino-5-((1-phenyl-3-(p-tolyl)-1H-pyrazol-4-yl)methylene)thiazol-4(5H)-one], the pIC50 is 5.55 at 15-LOX, 4.90 against ovine COX-1 and 6.74 at human recombinant COX-2. In addition, on human recombinant COX-2, the “SI (COX-1/ COX-2)” value was determined as 69.
For `Cc1nn(-c2ccccc2)c(Cl)c1/C=C1\SC(N2CCCCC2)=NC1=O` [Compound 1, (Z)-5-((5-chloro-3-methyl-1-phenyl-1H-pyrazol-4-yl)methylene)-2-(piperidin-1-yl)thiazol-4(5H)-one], the pIC50 at 15-LOX is 5.71; against ovine COX-1, 5.18; on human recombinant COX-2 it was 6.96. The “15-LOX inhibition, times the activity of quercetin” value at 15-LOX (relative to quercetin) was 1.7 times. For the same molecule, at human recombinant COX-2, the “SI (COX-1/ COX-2)” value came out at 59.
`Cc1ccc(Cl)c(Nc2ccccc2C(=O)O)c1Cl` [Meclofenamate Na, reference compound]: the pIC50 on 15-LOX is 5.25.
In the case of `O=C1N=C(N2CCCCC2)S/C1=C\c1cn(-c2ccccc2)nc1-c1ccccc1` [Compound 3, (Z)-5-((1,3-diphenyl-1H-pyrazol-4-yl)methylene)-2-(piperidin-1-yl)thiazol-4(5H)-one], the results for the pIC50 on 15-LOX, on ovine COX-1 and at human recombinant COX-2 were 5.60, 5.10 and 6.72, respectively. Besides, on human recombinant COX-2, the “SI (COX-1/ COX-2)” value worked out at 41.
On to `Cc1ccc(-c2nn(-c3ccccc3)cc2/C=C2\SC(N3CCCCC3)=NC2=O)cc1` [Compound 5, (Z)-5-((1-phenyl-3-(p-tolyl)-1H-pyrazol-4-yl)methylene)-2-(piperidin-1-yl)thiazol-4(5H)-one], for which the pIC50 on 15-LOX was 5.37; on ovine COX-1 it was 5.03; on human recombinant COX-2, 6.47. Besides, on human recombinant COX-2, the “SI (COX-1/ COX-2)” value is reported as 27.
`O=C1N=C(N2CCCCC2)S/C1=C\c1cn(-c2ccccc2)nc1-c1ccc(Br)cc1` [Compound 9, (Z)-5-((3-(4-bromophenyl)-1-phenyl-1H-pyrazol-4-yl)methylene)-2-(piperidin-1-yl)thiazol-4(5H)-one]: the pIC50 against 15-LOX was 5.25; at ovine COX-1, 4.85; at human recombinant COX-2 it was 6.89. Further, the “15-LOX inhibitory activity as % of the activity of quercetin” value at 15-LOX (relative to quercetin) is on record as 59%. Further, the “SI (COX-1/ COX-2)” value on human recombinant COX-2 is recorded as 107. Further, in data set [1], the “Inhibition of formalin-induced rat paw oedema (in words)” value was “as effective as either diclofenac or celecoxib”. Besides, the “Inhibition of cotton pellet granuloma weight (in words)” value in data set [2] is given as “only superior to celecoxib”.
